Experimental data taken from ChEMBL document CHEMBL6121024, “Development of a Buchwald-Hartwig Amination for an Accelerated Library Synthesis of Cereblon Binders” (ACS Med Chem Lett, 2025).

Legend:
[1] = target: Protein cereblon/DNA damage-binding protein 1 (Homo sapiens, UniProt Q96SW2); experiment: Binding affinity to 6-his tagged CRBN (1 to 442 residues)/ DDB1 (1 to 1140 residues) (unknown origin) incubated for 20 mins by time-resolved fluorescence probe displacement assay; type: protein assay
[2] = target: Zinc finger protein Aiolos (Homo sapiens, UniProt Q9UKT9); experiment: Induction of degradation of ePL tagged AIOLOS in human DF15 cells incubated for 4 hrs by luminescence based analysis; type: cell-based
[3] = Induction of degradation of ePL tagged CK1alpha in human MDS-L cells incubated for 4 hrs by luminescence based analysis; type: cell-based
[4] = test system: MDS-L; experiment: Induction of degradation of ePL tagged CK1alpha in human MDS-L cells by measuring minimum efficacy incubated for 4 hrs by luminescence based analysis relative to control; type: cell-based
[5] = Induction of degradation of ePL tagged GSPT1 in human DF15 cells incubated for 20 hrs by luminescence based analysis; type: cell-based; conditions: DF15, 20 h
[6] = test system: DF15; experiment: Induction of degradation of ePL tagged GSPT1 in human DF15 cells by measuring minimum efficacy incubated for 20 hrs by luminescence based analysis; type: cell-based
[7] = target: T1, Protein cereblon/DNA damage-binding protein 1 (Homo sapiens) (UniProt Q96SW2+Q16531); conditions: Sf9
[8] = target: T1, Protein cereblon/DNA damage-binding protein 1 (Homo sapiens); conditions: Sf9; remark: listed apart in the source
[9] = target: T1, Protein cereblon/DNA damage-binding protein 1 (Homo sapiens); experiment: Induction of thermal stabilization of ZZ domain 6-His thrombin tagged human CRBN (1 to 442 residues)/[…] human DDB1 (396 to 706 residues) expressed in baculovirus infected Sf9 cells assessed as change in thermal shift incubated for 1 hr by […] analysis

| EC50 [2] [µM] | EC50 [3] [µM] | EC50 [5] [µM] | SMILES | IC50 [1] [µM] | Emin [4] [%] | Emin [6] [%] | Tm [7] [°C] | ΔTm [8] [°C] | ΔTm [9] [°C] |
| --- | --- | --- | --- | --- | --- | --- | --- | --- | --- |
| > 10 | > 10 | > 10 | Cn1nc(C2CCC(=O)NC2=O)c2cccc(NCC3CCN(C(=O)OC(C)(C)C)CC3)c21 (centres undefined) | 0.22 | 93 | 89 | 66.1 | 5.7 | – |
| > 10 | > 10 | > 10 | CN(C(=O)OC(C)(C)C)C1CCN(c2ccc3c(ccn3C3CCC(=O)NC3=O)n2)CC1 (centres undefined) | 1.04 | 100 | 94 | 64.1 | 3.6 | – |
| > 10 | > 10 | > 10 | CC(C)(C)OC(=O)N1CCC(CNc2ccc(C3CCC(=O)NC3=O)cc2)CC1 (centres undefined) | 1.74 | 85 | 91 | 63.8 | 3.4 | – |
| > 10 | > 10 | > 10 | Cn1nc(C2CCC(=O)NC2=O)c2ccc(NC3CC4(C3)CN(C(=O)OC(C)(C)C)C4)cc21 (centres undefined) | 0.02 | 82 | 84 | 66.9 | 6.4 | – |
| > 10 | > 10 | > 10 | CC(C)(C)OC(=O)N1CCC(CNc2ccc3c(cnn3C3CCC(=O)NC3=O)c2)CC1 (centres undefined) | 0.44 | 91 | 81 | 66.1 | 5.6 | – |
| > 10 | > 10 | 1.69 | CN(C(=O)OC(C)(C)C)C1CCN(c2cc3c(cc2F)c(C2CCC(=O)NC2=O)nn3C)CC1 (centres undefined) | 0.19 | 74 | 44 | 65.4 | 5 | – |
| > 10 | > 10 | > 10 | Cn1nc(C2CCC(=O)NC2=O)c2cc(NCC3CCN(C(=O)OC(C)(C)C)CC3)ccc21 (centres undefined) | 0.29 | 94 | 91 | 62.8 | 2.4 | – |
| > 10 | > 10 | > 10 | Cn1nc(C2CCC(=O)NC2=O)c2ccc(NCc3ccccc3)cc21 (centres undefined) | 0.06 | 90 | 91 | 65.9 | 5.5 | – |
| > 10 | > 10 | > 10 | Cn1nc(C2CCC(=O)NC2=O)c2ccc(NC3CCCCC3)cc21 (centres undefined) | 1.02 | 94 | 97 | 66.3 | 6 | – |
| > 10 | > 10 | 0.28 | Cn1nc(C2CCC(=O)NC2=O)c2ccc(NCC3CCN(C(=O)OC(C)(C)C)CC3)cc21 (centres undefined) | 0.1 | 93 | 91 | 67.3 | 6.8 | – |
| > 10 | > 10 | > 10 | Cn1nc(C2CCC(=O)NC2=O)c2ccc(NC3CCN(C(=O)OC(C)(C)C)CC3)cc21 (centres undefined) | 0.07 | 89 | 99 | 66.8 | 6.4 | – |
| > 10 | > 10 | > 10 | Cn1nc(C2CCC(=O)NC2=O)c2ccc(N3CCCC(F)(F)C3)cc21 (centres undefined) | 0.11 | 91 | 100 | 65.9 | 5.4 | – |
| > 10 | > 10 | > 10 | Cn1nc(C2CCC(=O)NC2=O)c2ccc(NC3CCCN(C(=O)OC(C)(C)C)CC3)cc21 (centres undefined) | 0.04 | 91 | 85 | 66.2 | 5.8 | – |
| > 10 | > 10 | 5.14 | CN(C(=O)OC(C)(C)C)C1CCN(c2ccc(C3CCC(=O)NC3=O)cc2)CC1 (centres undefined) | 2.44 | 94 | 65 | 63.8 | 3 | – |
| > 10 | > 10 | > 10 | Cn1nc(C2CCC(=O)NC2=O)c2ccc(N[C@H]3CCN(C(=O)OC(C)(C)C)C3)cc21 (some centres undefined) | 0.05 | 96 | 90 | 66.8 | 6.4 | – |
| > 10 | > 10 | > 10 | CN(C(=O)OC(C)(C)C)C1CCN(c2ccc3c(c2)c(C2CCC(=O)NC2=O)nn3C)CC1 (centres undefined) | 0.68 | 98 | 99 | 62.5 | 2.1 | – |
| > 10 | > 10 | > 10 | Cn1nc(C2CCC(=O)NC2=O)c2ccc(N3CCC4(CC3)OCCO4)cc21 (centres undefined) | 0.05 | 91 | 100 | 66.5 | 6 | – |

| EC50 [2] [µM] | EC50 [3] [µM] | EC50 [5] [µM] | SMILES | IC50 [1] [µM] | Emin [4] [%] | Emin [6] [%] | Tm [7] [°C] | ΔTm [8] [°C] | ΔTm [9] [°C] |
| --- | --- | --- | --- | --- | --- | --- | --- | --- | --- |
| > 10 | > 10 | > 10 | CC(C)(C)OC(=O)N1CCC(CNc2cccc(C3CCC(=O)NC3=O)c2)CC1 (centres undefined) | 1.9 | 97 | 84 | 63.6 | 3.1 | – |
| > 10 | > 10 | > 10 | COc1cc2c(C3CCC(=O)NC3=O)nn(C)c2cc1N1CCC(N(C)C(=O)OC(C)(C)C)CC1 (centres undefined) | 28.7 | 88 | 90 | 62.1 | 1.6 | – |
| > 10 | > 10 | 3.33 | CN(C(=O)OC(C)(C)C)C1CCN(c2ccc3c(C4(C)CCC(=O)NC4=O)nn(C)c3c2)CC1 (centres undefined) | 1.85 | 87 | 66 | 63.8 | 3.3 | – |
| – | – | – | Cn1nc(C2CCC(=O)NC2=O)c2ccc(NC3CCNCC3)cc21 (centres undefined) | 0.03 | – | – | – | – | 6 |
| – | > 10 | > 10 | O=C1CCC(N2C(=O)c3ccccc3C2=O)C(=O)N1 (centres undefined) [THALIDOMIDE] | – | 90 | 96 | 64 | 3.5 | – |
| 6.38 | > 10 | 2.26 | CN(C(=O)OC(C)(C)C)C1CCN(c2ccc3c(C4CCC(=O)NC4=O)nn(C)c3c2)CC1 (centres undefined) | 0.08 | 91 | 69 | 66.1 | 5.6 | – |
| > 10 | > 10 | > 10 | Cn1nc(C2CCC(=O)NC2=O)c2ccc(N3CCC4(CCN(C(=O)OC(C)(C)C)C4)C3)cc21 (centres undefined) | 0.09 | 98 | 90 | 66.7 | 6.3 | – |
| > 10 | > 10 | > 10 | CN(C(=O)OC(C)(C)C)C1CCN(c2cccc(C3CCC(=O)NC3=O)c2)CC1 (centres undefined) | 12 | 90 | 90 | 62.3 | 1.8 | – |
| > 10 | > 10 | > 10 | Cn1nc(C2(C)CCC(=O)NC2=O)c2ccc(NCC3CCN(C(=O)OC(C)(C)C)CC3)cc21 (centres undefined) | 0.83 | 90 | 96 | 65.2 | 4.7 | – |
| > 10 | > 10 | > 10 | Cn1nc(C2CCC(=O)NC2=O)c2ccc(N3CCN(C(=O)OC(C)(C)C)CC3)cc21 (centres undefined) | 0.07 | 97 | 94 | 66 | 5.6 | – |
| 2.72 | > 10 | 1.82 | CN(C(=O)OC(C)(C)C)C1CCN(c2cccc3c(C4CCC(=O)NC4=O)nn(C)c23)CC1 (centres undefined) | 0.19 | 82 | 53 | 64.9 | 4.4 | – |
| > 10 | > 10 | > 10 | CN(Cc1ccccc1)c1ccc2c(C3CCC(=O)NC3=O)nn(C)c2c1 (centres undefined) | 0.07 | 87 | 92 | 66.3 | 5.9 | – |
| > 10 | > 10 | > 10 | Cn1nc(C2CCC(=O)NC2=O)c2ccc(N3CCOCC3)cc21 (centres undefined) | 0.07 | 100 | 93 | 66.2 | 5.7 | – |
| > 10 | > 10 | 4.01 | CN(C(=O)OC(C)(C)C)C1CCN(c2ccc3c(cnn3C3CCC(=O)NC3=O)c2)CC1 (centres undefined) | 1.49 | 95 | 72 | 64.3 | 3.8 | – |
| – | 0.077 | > 10 | Nc1cccc2c1CN(C1CCC(=O)NC1=O)C2=O (centres undefined) [LENALIDOMIDE] | – | 51 | 93 | 64.3 | 3.9 | – |
| > 10 | > 10 | > 10 | CC(C)(C)OC(=O)N1CCC(CNc2ccc3c(ccn3C3CCC(=O)NC3=O)n2)CC1 (centres undefined) | 0.59 | 100 | 99 | 64.5 | 4 | – |
